Laboratory results as given in publication PMC7906907, “Targeting STAT3 by a small molecule suppresses pancreatic cancer progression” (Oncogene, 2021).

What was measured:
PANC-1 cells = assay: PANC-1 shNC / shSTAT3 xenograft with drug withdrawal; assay type: in vivo, Mice
From the text: To provide further evidence that STAT3 is the direct target of N4, we constructed two STAT3 stable knockdown cell lines by the short hairpin RNA (shRNA) (Supplementary Fig. S10A), and the sequence of shRNA was list in Supplementary Table S3. […] At the meantime, the effect of drug withdrawal on tumor volume and weight was also examined. After 20 days of treatment, all the drug or vehicle were removed and the tumor was allowed to grow for another 12 days. […] Thus, N4 kept the suppression on tumor growth compared to vehicle group during the drug withdrawal period.
Supplementary Figure 10. STAT3 knockdown cells are resistant to N4 in vivo. (A) PANC-1 cells were transfected with shRNA that targeted STAT3 or negative control, and the knockdown efficiency was examined by western blot. (B) Mice bearing the PANC-1 cells within STAT3 stable knockdown (shSTAT3-1#) or negative control (shNC), and administration N4 or vehicle (control) every day by i.p. After 20 days treatment, the N4 and vehicle were removed for another 12 days. Then the mice were sacrificed and the tumor was removed and photographed (n=5 per group). (C) The tumor volume was measured every 3-4 days and the volume was calculated by the formula: length × width2 ×0.52, data are shown as mean ± SD, ****P < 0.0001 and n.s., not significant by one-way ANOVA followed by multiple-comparison tests. (D) After […]

[1] = system: STAT3 Tyr705 phosphorylation; assay: Western blot of STAT3 activation in pancreatic cancer cells; assay type: cell-based
Method: Fig. 2 N4 inhibits STAT3 activation in pancreatic cancer cells. A PANC-1, CAPAN-2, and BXPC-3 cells were treated with the indicated concentrations of N4 for 24 h. Then, p-STAT3 (Y705), p-STAT3 (S727), and STAT3 were detected by western blot assays with glyceraldehyde 3-phosphate dehydrogenase (GAPDH) used as the loading control. B Pancreatic cancer cells were starved in a medium lacking fetal bovine serum (FBS; basic medium) for 24 h, and then pretreated with N4 in basic medium for 24 h. Then, stimulated with IL-6 (20 ng/mL) for 30 min and lysed for western blot analysis using the indicated antibodies. C Expression levels of STAT3 downstream genes were detected by western blot following treatment of PANC-1 and CAPAN-2 cells with N4. D PANC-1 cells were seeded and allowed to attach, and then pretreated with 2 μM of N4 in FBS-free medium for 24 h. The cells were stimulated for 30 min using IL-6 (20 ng/mL). The STAT3 antibody (green) and 4, 6-diamidino-2-phenylindole (DAPI) (blue) was used for staining and STAT3 and the nucleus, respectively. The samples were photographed and analyzed. The scale bar represents 20 μm. E After 24 h treatment with 2 μM N4, PANC-1 cells were stimulated with IL-6 (20 ng/mL) for 30 min, and the cytoplasmic and nuclear extractions were analyzed by western blot. p-STAT3 (Y705) was used to detect STAT3, and GAPDH and H3 were used as the cytoplasm and nucleus internal control, respectively.
Western blotting was performed as previously described. Briefly, cells were treated with indicated compounds and then lysed by boiling. […]

STAT3-NF-κB complex = biological target: T1, STAT3-NF-κB complex (Homo sapiens, UniProt P40763); assay: Co-immunoprecipitation, STAT3-NF-κB interaction; assay type: cell-based; conditions: PANC-1 cells, 2 μM, 24 h
T1 construct: endogenous in cells; host or cells: PANC-1
T1 sequence (P40763 2-770 limits assumed, one chain of several): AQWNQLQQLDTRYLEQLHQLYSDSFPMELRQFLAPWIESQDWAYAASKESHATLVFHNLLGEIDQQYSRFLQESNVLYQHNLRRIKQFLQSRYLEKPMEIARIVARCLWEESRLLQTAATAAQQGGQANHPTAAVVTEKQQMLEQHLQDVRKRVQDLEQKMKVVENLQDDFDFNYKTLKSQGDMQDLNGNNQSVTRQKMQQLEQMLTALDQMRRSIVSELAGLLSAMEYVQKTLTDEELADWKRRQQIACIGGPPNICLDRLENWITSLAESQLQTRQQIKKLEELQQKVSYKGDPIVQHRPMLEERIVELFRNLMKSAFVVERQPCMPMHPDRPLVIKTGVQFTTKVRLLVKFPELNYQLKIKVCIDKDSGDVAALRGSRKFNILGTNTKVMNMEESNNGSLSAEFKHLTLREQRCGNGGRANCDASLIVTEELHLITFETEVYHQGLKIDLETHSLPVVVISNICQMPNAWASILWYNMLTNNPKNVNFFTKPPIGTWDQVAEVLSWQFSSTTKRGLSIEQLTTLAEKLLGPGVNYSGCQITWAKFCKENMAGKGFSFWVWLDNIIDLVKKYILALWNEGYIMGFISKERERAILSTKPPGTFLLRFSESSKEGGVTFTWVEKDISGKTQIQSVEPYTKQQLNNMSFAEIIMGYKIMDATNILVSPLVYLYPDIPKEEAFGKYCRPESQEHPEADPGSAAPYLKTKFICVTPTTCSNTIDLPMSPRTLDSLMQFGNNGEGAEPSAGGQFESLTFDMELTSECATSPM
From the text: Fig. 3 N4 interacts with the STAT3-SH2 domain and interferes with the STAT3-EGFR and STAT3-NF-κB interactions. […] C–E The binding between N4 and STAT3 was examined in (C) SPR and (D) MST experiments. His-STAT3^127-722 protein was purified and used to examine the affinity between STAT3 and N4. (E) The binding between N4 and STAT3^SH2 was confirmed in MST assays. STAT3-SH2 protein was purified and labeled. N4 was serially diluted and mixed with equal volumes of labeled STAT3^SH2 protein. The MST signal was measured, and the data were analyzed by MO analysis software. F, G The FLAG-tag and HA-tag STAT3 expression plasmid was transfected into 293 T cells, followed by the addition of the indicated concentrations of N4. After 24 h, cells were lysed, and immunoprecipitation experiments were performed as described in Materials and Methods. H N4 represses STAT3 dimerization in pancreatic cancer cells. I After a 24 h treatment with 2 μM N4, pancreatic cancer cells were stimulated with IL-6 for 30 min. Cell lysates were immunoprecipitated with STAT3 overnight. The precipitates were washed, suspended in non-reducing sample buffer, and boiled for 10 min. The indicated antibodies were used for western blot assays. […]
Co-IP was performed as previously described. […] After overnight incubation, the precipitates were washed and analyzed using western blotting.

[2] = PANC-1, CAPAN-2, BXPC-3 cells, 24 h

With COc1cc2c(cc1C(=O)Nc1cccc3cccnc13)CCC1C(C)(C)C(=O)C(C#N)=C[C@]21C (stereo partly drawn) [N4] as the compound, how does the “sensitivity of STAT3 stable knockdown cells to treatment” value (PANC-1 cells; compared with control cells) read?
The value was “not sensitive”.

What about the “increase in tumor volume during the drug withdrawal period” value (PANC-1 cells; shNC-N4 group, 20 days treatment i.p., then 12 days withdrawal) of the same compound?
Its value is 249.49 mm^3.

And the “STAT3 Tyr705 phosphorylation” value [1, 2]?
The value was “selectively blocked”.

What about the “Ser-727 phosphorylation and STAT3 protein expression” value [1, 2] of the same compound?
Its value is “no obvious inhibition”.

What about the “SHP2 (PTPase), p-STAT1, p-STAT5, p-extracellular signal-regulated kinase, and p-AKT levels” value ([1]; western blots) of the same compound?
The value was “no obvious influence”.

And the “interaction between STAT3 and NF-κB” value (STAT3-NF-κB complex)?
Its value is “blocked”.
